Assay results: PMC8961551, “Potential Anticancer Agents against Melanoma Cells Based on an As-Synthesized Thiosemicarbazide Derivative” (Biomolecules, 2022)
Read-outs that look alike come from different tables or passages of the source.

Key:
G-361 melanoma = assay: MTT cytotoxicity, G-361 melanoma; assay type: cell-based, human; conditions: for IC50: MTT test, 24 h treatment, G-361 melanoma; for cytotoxic to melanoma cells (MTT test): G-361, concentration range used
Protocol: (§1) Biological studies were performed on human malignant melanoma G-361 (ATCC CRL-1424) cell lines and human fibroblast BJ (ATCC® CRL-2522™) cell lines purchased from the American Type Culture Collection (ATCC, Manassas, VA USA). The G-361 cell lines were maintained in McCoy’s medium (Corning, NY, USA), and the fibroblast BJ cell line was cultured in EMEM (Corning, NY, USA). All media were supplemented with 10% heat-inactivated fetal bovine serum (PAN-Biotech, Aidenbach, Germany), 100 U/mL penicillin, 100 μg/mL streptomycin and 0.25 μg/mL amphotericin B (Sigma-Aldrich, St. Louis, MO, USA). Cultures were maintained at 37 °C in a humidified atmosphere of 95% air and 5% CO2. The experiments were performed using cells from passage 5 to 10.
(§2) The cytotoxicity of the new compounds was evaluated against both the G-361 and BJ cell lines. Cells were seeded into 96-well plates at a density of 3 × 10^4 cells/well and 2 × 10^4 cells/well. After 24 h of incubation, when 70–80% confluence was reached, the culture medium was removed and replaced with the fresh one containing the tested compounds in the concentration range of 10, 25, 50, 75, 100, 125 and 250 μM. Cells were cultured at 37 °C in the presence of 5% air with CO2 for another 24 h. The cytotoxicity of the test compounds was evaluated by the MTT colorimetric assay, based on the ability of live cells to convert yellow soluble tetrazolium salts (3-[4,5-dimethylthiazol-2-yl]- 2,5-diphenyltetrazolium bromide, MTT) to purple insoluble formazan by cellular dehydrogenase. After 24 h of incubation with solutions of the test compounds, 4 mg/mL MTT solution (Thermo Scientific, Waltham, MA, USA) was added to the cell cultures and incubation was continued for 4 h at 37 °C. The MTT medium was then removed, and the resulting crystals were dissolved in 200 µL of DMSO. The solution was measured for absorbance at 570 nm using a Power Wave xs spectrophotometric plate reader, BioTek Instruments (Winooski, VT, USA). The experiment was performed three times with three replicates for each concentration. IC50 values were determined using the AAT Bioquest IC50 calculator.

[1] = test system: BJ normal fibroblast cell line; assay: MTT cytotoxicity, BJ normal fibroblasts; assay type: cell-based, human; conditions: MTT test, 24 h treatment, BJ normal fibroblasts, concentration range 10-250 µM, read-out: IC50 BJ
Protocol: as §1, §2

RP-HPLC lipophilicity = assay type: physicochemical; conditions: for logkW (chromatographic lipophilicity parameter): Kinetex C18, methanol-water 55-80%, extrapolated to 0% methanol; for -S HPLC (slope of linear equation): Table S3
Protocol: RP-HPLC analysis was performed using a Merck-Hitachi LaChrom Elite System (Merck, Darmstadt, Germany) with diode array detector L-2455, thermostat L-2300, pump L-2130 and autosampler L-2200 with a Kinetex C18 (5µm; 150 × 4,6mm) chromatographic column (Phenomenex, Torrance, USA) as the stationary phase. The mobile phase consisted of methanol (Merck, Darmstadt, Germany) and water (double-distilled), which was degassed by use of the built-in membrane degasser. Subsequently, 5 μL methanolic solution (0.1%; m/v) of the selected samples was applied to the chromatographic column by use of a Hitachi L-2200 autosampler (LaChrom Elite, Hitachi-Merck, Darmstadt, Germany). The analysis was performed with a flow rate of 0.7 mL min^−1 in isocratic mode using various concentrations of organic modifier (methanol) in binary polar mobile phases; percentages of methanol in water were 55–80% (%, v/v) and changed by 5% per step. Chromatograms were detected at 254 nm and the temperature of the column was 25 °C. All experiments were repeated in triplicate and the final results were taken to be the arithmetic means. Dead time was measured using uracil (Calbiochem. Merck, Darmstadt, Germany).

RP-TLC lipophilicity = assay type: physicochemical; conditions: for RMW (chromatographic lipophilicity parameter): RP-18 plates, methanol-water 65-95%, extrapolated to 0% methanol; for -S TLC (slope of linear equation): Table S3
Protocol: RP-TLC analysis was performed using RP-18 TLC silica gel 60 F254 plates (10 × 20 cm, Merck, Darmstadt, Germany) with a DS-II chromatographic horizontal chamber (CHROMDES, Lublin, Poland). The mobile phase consisted of methanol (POCH, Gliwice, Poland) and water with the following concentrations of methanol: 65–95% (%, v/v), with a concentration change every 5%. After drying, the spots were observed under a UV lamp with a wavelength of 254 nm.

Row | Compound | IC50 (G-361 melanoma) [µM] | IC50 [1] [µM] | IC50 (G-361 melanoma; Homo sapiens) [µM] | IC50 ([1]; Homo sapiens, Fibroblast) [µM] | logkW (chromatographic lipophilicity parameter) (RP-HPLC lipophilicity) | -S HPLC (slope of linear equation) (RP-HPLC lipophilicity) | RMW (chromatographic lipophilicity parameter) (RP-TLC lipophilicity) | -S TLC (slope of linear equation) (RP-TLC lipophilicity) | cytotoxic to melanoma cells (MTT test) (G-361 melanoma)
1 | 1-[[2-(2,4-Dichlorophenoxy)acetyl]amino]-3-[4-[[[2-(2,4-dichlorophenoxy)acetyl]amino]carbamoylamino]phenyl]thiourea [PK13] | > 250 | > 250 | – | – | – | – | – | – | –
2 | O=C(COc1ccc(Cl)cc1Cl)NNC(=S)Nc1ccccc1F [PK1, 1-(2,4-dichlorophenoxy)acetyl-4-(2-fluorophenyl)thiosemicarbazide] | – | – | > 250 | > 250 | 3.4437 | 4.9238 | 2.6706 | 3.1923 | –
3 | O=C(COc1ccc(Cl)cc1Cl)NNC(=S)Nc1ccc([N+](=O)[O-])cc1 [PK3, 1-(2,4-dichlorophenoxy)acetyl-4-(4-nitrophenyl)thiosemicarbazide] | > 250 | > 250 | – | – | 2.7667 | 3.8522 | 2.4459 | 2.9474 | –
4 | O=C(COc1ccc(Cl)cc1Cl)NNC(=S)Nc1cccc(I)c1 [PK4, 1-(2,4-dichlorophenoxy)acetyl-4-(3-iodophenyl)thiosemicarbazide] | > 250 | > 250 | – | – | – | – | – | – | –
5 | O=C(COc1ccc(Cl)cc1Cl)NNC(=S)Nc1ccc(F)cc1 [PK5, 1-(2,4-dichlorophenoxy)acetyl-4-(4-fluorophenyl)thiosemicarbazide] | > 250 | > 250 | – | – | 3.8993 | 5.5119 | 2.7612 | 3.4335 | –
6 | O=C(COc1ccc(Cl)cc1Cl)NNC(=S)Nc1ccc(I)cc1 [PK7, 1-(2,4-dichlorophenoxy)acetyl-4-(4-iodophenyl)thiosemicarbazide] | – | – | 99 ± 4 | 216 ± 76 | 4.5363 | 5.9005 | 3.8527 | 4.4553 | cytotoxic
7 | O=C(COc1ccc(Cl)cc1Cl)NNC(=S)Nc1cccc(Br)c1 [PK8, 1-(2,4-dichlorophenoxy)acetyl-4-(3-bromophenyl)thiosemicarbazide] | > 250 | > 250 | – | – | – | – | – | – | –
8 | O=C(COc1ccc(Cl)cc1Cl)NNC(=S)Nc1cccc(F)c1 [PK10, 1-(2,4-dichlorophenoxy)acetyl-4-(3-fluorophenyl)thiosemicarbazide] | 218 ± 5.34 | 223 ± 7 | – | – | – | – | – | – | cytotoxic
9 | O=C(COc1ccc(Cl)cc1Cl)NNC(=S)Nc1ccccc1Br [PK11, 1-(2,4-dichlorophenoxy)acetyl-4-(2-bromophenyl)thiosemicarbazide] | 162 ± 2 | 217 ± 64.3 | – | – | 3.93 | 5.3438 | 2.7832 | 3.3663 | cytotoxic
10 | O=C(COc1ccc(Cl)cc1Cl)NNC(=S)Nc1ccc(Br)cc1 [PK12, 1-(2,4-dichlorophenoxy)acetyl-4-(4-bromophenyl)thiosemicarbazide] | – | 189 ± 7 | – | – | 4.3897 | 5.8565 | 3.5706 | 4.1984 | cytotoxic
